Source: paper PMC7606612, “Identification of HMGA2 inhibitors by AlphaScreen-based ultra-high-throughput screening assays” (Scientific Reports, 2020)
Values joined by “and” are separate entries in the source; they are usually repeats but may differ in a detail not shown here. Equal values may be shown once.

Columns and labels:
[1] = test system: BTSC#83; assay: Light microscopy of morphology / differentiation, BTSC#83; format: cell-based; conditions: 100 µM and 200 µM, 6 days
[2] = test system: anaplastic thyroid carcinoma cell line 8505c; assay: Chromatin immunoprecipitation (ChIP) of HMGA2 on ID2 promoter regions A and B; format: cell-based, human; conditions: 6 days
Description: The role of HMGA1 and HMGA2 in regulating ID2 transcription was confirmed by analyzing its expression in mouse embryonic fibroblasts (MEFs) knock-out for HMGA1, HMGA2, and the A1/A2 double mutant, respectively. […] We identified two AT-rich regions, hereafter indicated as “region A” and “region B”, in the human ID2 promoter, containing the HMGA2 consensus sequence[26] (Table S2) for our ChIP experiments. Due to availability, the high proliferation rate, and the expression of HMGA proteins, the anaplastic thyroid carcinoma cell line 8505c was used.
Chromatin immunoprecipitation was performed as described. Briefly, for each sample, 5 × 10^6 cells were collected by trypsinization and cross-linked with 1% formaldehyde; after sonication, the samples were immunoprecipitated with 10 µL anti-HMGA2 antibody (Genetex) or with control normal rabbit IgG and the chromatin was extracted. qPCR amplification was performed on 6 µL of immunoprecipitated DNA, using primers amplifying regions A and B of the ID2 promoter (Table S2). Ct values of samples precipitated with anti-HMGA2 and IgG antibodies were normalized with Ct values of input DNA. Fold change enrichment was calculated in comparison to normalized IgG, using the 2^−ΔΔCt formula. P values were calculated by using one-way ANOVA followed by Sidak’s multiple comparison test.

[3] = target: T1, HMGA2-DNA interactions (Mus musculus, UniProt P52927); assay: AlphaScreen primary uHTS assay of His-tagged HMGA2 binding to biotin-labeled DNA oligomer FL814; set-up: species or system mammalian
T1 construct: made in house
T1 sequence (P52927 2-108 limits assumed): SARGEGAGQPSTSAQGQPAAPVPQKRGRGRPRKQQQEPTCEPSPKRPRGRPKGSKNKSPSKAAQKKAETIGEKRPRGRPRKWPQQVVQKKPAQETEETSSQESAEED
Procedure: To address these limitations, we established a new assay using AlphaScreen technology. The assay entails binding a biotin-labeled DNA oligomer FL814 and His-tagged HMGA2 to streptavidin-coated donor beads and nickel chelate (Ni-NTA) acceptor beads, respectively (Fig. 1). A series of DNA binding studies were performed to determine the optimal conditions for the AlphaScreen Primary Assay (Fig. S1a–d). […] These two inhibitors are readily available for purchase and served as positive controls for HMGA2-DNA interaction inhibition in the assay.
Using a Labcyte Echo 555 acoustic dispenser 5 nL of DMSO were added to columns 1–4 and 45–48 of a white 1536 well plate, while 5 nL of 2 mM compounds in DMSO were added to columns 5–44. Using a Beckman BioRAPTR FRD bulk reagent dispenser 1 µL of assay buffer (30 mM Citrate, 300 mM NaCl, and 0.005% Tween 20) was added to columns 1 and 2. Next 1 µL of assay buffer containing 125 nM HMGA2 was added to columns 3–48 with a Beckman BioRAPTR FRD bulk reagent dispenser. Finally, 1 µL of assay buffer containing 25 nM FL814 was added to every well of the plate using a Beckman BioRAPTR FRD bulk reagent dispenser. The plate was then centrifuged at 200 × g for 1 min. After 30 min at room temperature, 2 µL of bead buffer (10 mM HEPES, 300 mM NaCl and 0.005% Tween 20) containing 20 µg/mL anti-6xHIS acceptor beads and 20 µg/mL streptavidin donor beads were dispensed into every well using a Beckman BioRAPTR FRD bulk reagent dispenser. The plates were then centrifuged at 200 × g for 1 min. After 1 h at room temperature the plates were read on a Perkin Elmer Envision multimode plate reader in AlphaScreen mode.

[4] = test system: BTSC#30p; assay: Light microscopy of morphology / differentiation, BTSC#30p; format: cell-based; conditions: 100 µM and 200 µM, 6 days
[5] = test system: BTSC#83; assay: Western blotting and qRT-PCR expression analysis, BTSC#83; format: cell-based
Procedure: The single-cell suspension was obtained by mechanical disaggregation of the spheres and total proteins were extracted 48 h later, as previously described. After separation by SDS–polyacrylamide gel electrophoresis, proteins were blotted on nitrocellulose membranes (GE Healthcare Europe Gmb) and hybridized with the following antibodies: anti-HMGA1, anti-HMGA2 (Genetex) or affinity-purified anti-HMGA2, anti-α-actin (SantaCruz Biotechnologies). The single-cell suspension was obtained by mechanical disaggregation of the spheres and RNA was extracted 48 h later, by using Direct-zol RNA MiniPrep (Zymo Research). One μg of RNA was retrotranscribed, by using QuantiTect® Reverse Transcription Kit (Qiagen) and qRT-PCR was performed as described. The 2^–ΔΔCt formula was used to calculate the differential gene expression.

- inhibition at 5 µM ([3]; LOPAC1280 screen, final concentration of 5 µM): ≥ 50%
- inhibition of HMGA2-DNA interactions (in words) ([3]; confirmed hits that do not bind to DNA): strongly inhibit HMGA2-DNA interactions
- IC50 ([3]; titration, HMGA2-FL814 interactions, Fig. 3a): 2580 nM and 2600 nM
Compound: Cc1ccc(C(=O)Nc2ccc(S(=O)(=O)O)c3cc(S(=O)(=O)O)cc(S(=O)(=O)O)c23)cc1NC(=O)c1cccc(NC(=O)Nc2cccc(C(=O)Nc3cc(C(=O)Nc4ccc(S(=O)(=O)O)c5cc(S(=O)(=O)O)cc(S(=O)(=O)O)c45)ccc3C)c2)c1 [suramin]
- cell morphology / induction of differentiation [1]: adhere to the bottom of the well and extend neurite-like structures
- HMGA2 binding to ID2 promoter regions A and B (ChIP) ([2]; 100 µM): did not detect significant HMGA2 binding reduction
- HMGA2 binding to ID2 promoter regions A and B (ChIP) ([2]; 200 µM): drastic reduction in the enrichment
- cell morphology / induction of differentiation [4]: acquire flat epithelial morphology
- expression of HMGA1 ([5]; Western blotting and qRT-PCR): slightly reduced
- expression of HMGA2 ([5]; Western blotting and qRT-PCR): slightly reduced
- expression of SNAIL ([5]; qRT-PCR, 100 µM for 48 h): significantly reduced
